# Reference: ChEMBL document CHEMBL1128932, “Liposome-like fucopeptides as sialyl lewis X mimetics” (Bioorg Med Chem Lett, 1996)
# Biological target: T1, E-selectin (Homo sapiens, UniProt P16581)
# T1 sequence (P16581 whole entry): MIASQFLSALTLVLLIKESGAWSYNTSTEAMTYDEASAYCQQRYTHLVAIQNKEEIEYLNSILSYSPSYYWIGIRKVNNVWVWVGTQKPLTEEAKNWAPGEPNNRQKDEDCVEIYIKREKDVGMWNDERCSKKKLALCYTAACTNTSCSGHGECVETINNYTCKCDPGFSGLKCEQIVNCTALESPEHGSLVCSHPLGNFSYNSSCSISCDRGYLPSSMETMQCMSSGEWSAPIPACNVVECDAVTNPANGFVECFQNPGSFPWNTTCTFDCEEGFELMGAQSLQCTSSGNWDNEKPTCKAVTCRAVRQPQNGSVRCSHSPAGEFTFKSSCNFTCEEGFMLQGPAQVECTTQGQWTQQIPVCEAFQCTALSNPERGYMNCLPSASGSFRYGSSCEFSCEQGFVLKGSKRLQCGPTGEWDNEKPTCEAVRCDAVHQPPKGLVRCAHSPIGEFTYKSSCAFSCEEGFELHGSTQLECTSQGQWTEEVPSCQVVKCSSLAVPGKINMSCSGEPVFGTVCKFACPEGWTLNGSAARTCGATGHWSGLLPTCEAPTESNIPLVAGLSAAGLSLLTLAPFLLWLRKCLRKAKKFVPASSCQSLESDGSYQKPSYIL
# Experiment: Ability to inhibit sialyl Lewis X binding to Selectin E was determined
row,IC50 [µM],SMILES
1,500,CC(=O)N[C@H]1[C@H]([C@H](O)[C@H](O)CO)O[C@@](O[C@H]2[C@@H](O)[C@@H](CO)O[C@@H](O[C@@H]([C@H](O[C@@H]3O[C@@H](C)[C@@H](O)[C@@H](O)[C@@H]3O)[C@H](C=O)NC(C)=O)[C@H](O)CO)[C@@H]2O)(C(=O)O)C[C@@H]1O [SIALYL LEWIS X]

# Biological target: T1, E-selectin
# Experiment: Inhibitory activity against Selectin E
row,SMILES,IC50 [µM]
1,"CCOC(=O)[C@@H](NC(=O)C1C[C@@H](O)CN1C(=O)CCCC(=O)O)[C@@H](C)O[C@H]1O[C@@H](C)[C@@H](O)C(O)C1O (single isomer, unassigned)",100
2,CCOC(=O)[C@@H](NC(=O)[C@@H]1C[C@H](O)CN1C(=O)CCCC(=O)O)[C@@H](C)O[C@@H]1O[C@@H](C)[C@@H](O)C(O)C1O (some centres not stated),1000
3,C[C@@H]1O[C@@H](O[C@@H]2CCCC[C@H]2NC(=O)[C@@H]2[C@@H](O)[C@@H](O)CN2C(=O)CCCC(=O)O)C(O)C(O)[C@@H]1O (some centres not stated),5000
4,CCOC(=O)[C@@H](NC(=O)[C@H]1C[C@H](O)CN1C(=O)CCCC(=O)O)[C@@H](C)O[C@@H]1O[C@@H](C)[C@@H](O)C(O)C1O (some centres not stated),100
5,CCCCCCCCCCCCCCCCOC(=O)CC[C@H](NC(=O)CNC(=O)[C@@H](NC(=O)[C@H]1C[C@H](O)CN1C(=O)CCCC(=O)O)[C@@H](C)O[C@@H]1O[C@@H](C)[C@@H](O)C(O)C1O)C(=O)OCCCCCCCCCCCCCCCC (some centres not stated),500
6,CCOC(=O)[C@@H](NC(=O)[C@H]1C[C@@H](O)CN1C(=O)CCCC(=O)O)[C@@H](C)O[C@@H]1O[C@@H](C)[C@@H](O)C(O)C1O (some centres not stated),3000
7,CCCCCCCCCCCCCCCCOC(=O)CC[C@H](NCCOCCOCCNC(=O)[C@@H](NC(=O)[C@H]1C[C@H](O)CN1C(=O)CCCC(=O)O)[C@@H](C)O[C@@H]1O[C@@H](C)[C@@H](O)C(O)C1O)C(=O)OCCCCCCCCCCCCCCCC (some centres not stated),500

# Now from value to compound:
row,IC50 [µM],SMILES
1,900,CCOC(=O)[C@@H](NC(=O)C(CO)(CO)NC(=O)CCCC(=O)O)[C@@H](C)O[C@@H]1O[C@@H](C)[C@@H](O)C(O)C1O (some centres not stated)
2,500,CCOC(=O)[C@@H](NC(=O)[C@H](NC(=O)CCCC(=O)O)[C@@H](O)CO)[C@@H](C)O[C@@H]1O[C@@H](C)[C@@H](O)C(O)C1O (some centres not stated)
3,50,CCOC(=O)[C@@H](NC(=O)[C@@H]1[C@@H](O)[C@@H](O)CN1C(=O)CCCC(=O)O)[C@@H](C)O[C@@H]1O[C@@H](C)[C@@H](O)C(O)C1O (some centres not stated)
4,300,CCOC(=O)[C@@H](NC(=O)[C@@H]1C[C@@H](O)CN1C(=O)CCCC(=O)O)[C@@H](C)O[C@@H]1O[C@@H](C)[C@@H](O)C(O)C1O (some centres not stated)
